Experimental data: patent publication US10159640B2, “Prebiotic oral care compositions containing amino acids” (COLGATE-PALMOLIVE COMPANY, priority 2013, dated 2018)

Tests used:
Experiment in all cases: Biofilm growth assay in BHI, crystal violet
Type in all cases: cell-based
Conditions in all cases: control = 1
[1] = system: Streptococcus salivarius
Experimental: (§1) The increase in biofilm formation of the tested bacteria in response to selected compounds (Met-Pro, Phe-Glu) was investigated by setting up biofilm growth assays in a nutritionally rich medium (brain heart infusion broth (BHI), Oxoid), over 48 hours. Late exponential growth phase liquid cultures were prepared by transferring the respective bacterium from blood agar plates to BHI and overnight incubation at 37° C. in an anaerobic atmosphere for A. viscosus, V. parvula, F. nucleatum, P. gingivalis, P. intermedia, T. forsythia, A. naeslundii, and C. sputigena, and in a 5% CO2 environment for S. salivarius, S. sanguinis, S. mitis, A. actinomycetemcomitans, S. mutans, and S. gordonii. Overnight cultures were transferred to BHI and adjusted to a concentration of 1×10^7 CFU/ml by measuring the optical density at 600 nm (OD600) (BioRad SmartSpec 3000). For each strain, 200 μl of the bacterial suspension was added to a 96-well plate containing 20 μl of the respective di-peptides. Final concentrations of the di-peptides were set to 5, 10, 20 and 25 μmol/ml. […] Additionally, for each bacterium tested, a background control, to correct for background staining, was added. This background control contained the bacterium tested and 0.03 weight % chlorhexidine, as an antiseptic. Plates were incubated as previously described. After 48 hrs the supernatant was removed from the wells of the plates. The wells were washed twice with 1×100 μL PBS (phosphate buffered saline), fixed for 20 minutes with 96% vol. ethanol (96% vol. solution in water) and the biofilm retained at the bottom of the wells was stained with 1 weight % crystal violet (1 weight % solution in water). The bound dye was dissolved with 5% vol. acetic acid (5% vol. solution in water). Quantification of the stained biofilm was performed by measuring the absorbance at 630 nm using a Multiskan Ascent microplate reader (Thermo Scientific).
(§2) The experiment was carried out on three different days (thus providing 3 biological replicas) and each day the experiment was carried out in quadruple (thus providing 4 technical replicas) for each combination of bacterium with dipeptide and for each control. For each day and for each combination, the average (mean) of the values obtained (as detailed above) for the four technical replicas was calculated to provide a single value for each combination on each day. The values shown in Tables 7 to 8, below, are the average (mean) of the three single values obtained for each combination of bacterium with dipeptide.

[2] = system: Aggregatibacter actinomycetemcomitans
Experimental: as §1, §2

[3] = system: Tannerella forsythia
Experimental: as §1, §2

[4] = system: Veillonella parvula
Experimental: as §1, §2

[5] = system: Fusobacterium nucleatum
Experimental: as §1, §2

[6] = system: Streptococcus mutans
Experimental: as §1, §2

[7] = system: Prevotella intermedia
Experimental: as §1, §2

[8] = system: Capnocytophaga sputigena
Experimental: as §1, §2

[9] = system: Streptococcus gordonii
Experimental: as §1, §2

[10] = system: Porphyromonas gingivalis
Experimental: as §1, §2

[11] = system: Streptococcus mitis
Experimental: as §1, §2

[12] = system: Actinomyces naeslundii
Experimental: as §1, §2

[13] = system: Actinomyces viscosus
Experimental: as §1, §2

[14] = system: Streptococcus sanguinis
Experimental: as §1, §2

Phe-Glu
biofilm growth: OD 630 nm (crystal violet) at 48 hrs divided by OD of control ([1]; 5 μmol/ml): 1.4007
biofilm growth: OD 630 nm (crystal violet) at 48 hrs divided by OD of control ([1]; 10 μmol/ml): 1.0359
biofilm growth: OD 630 nm (crystal violet) at 48 hrs divided by OD of control ([1]; 20 μmol/ml): 0.8978
biofilm growth: OD 630 nm (crystal violet) at 48 hrs divided by OD of control ([1]; 25 μmol/ml): 0.7342
biofilm growth: OD 630 nm (crystal violet) at 48 hrs divided by OD of control ([2]; 5 μmol/ml): 0.5867
biofilm growth: OD 630 nm (crystal violet) at 48 hrs divided by OD of control ([2]; 10 μmol/ml): 0.3454
biofilm growth: OD 630 nm (crystal violet) at 48 hrs divided by OD of control ([2]; 20 μmol/ml): 0.0481
biofilm growth: OD 630 nm (crystal violet) at 48 hrs divided by OD of control ([2]; 25 μmol/ml): 0.0212
biofilm growth: OD 630 nm (crystal violet) at 48 hrs divided by OD of control ([3]; 5 μmol/ml): 0.5744
biofilm growth: OD 630 nm (crystal violet) at 48 hrs divided by OD of control ([3]; 10 μmol/ml): 0.3083
biofilm growth: OD 630 nm (crystal violet) at 48 hrs divided by OD of control ([3]; 20 μmol/ml): 0.0188
biofilm growth: OD 630 nm (crystal violet) at 48 hrs divided by OD of control ([3]; 25 μmol/ml): 0.0254
biofilm growth: OD 630 nm (crystal violet) at 48 hrs divided by OD of control ([4]; 5 μmol/ml): 0.3257
biofilm growth: OD 630 nm (crystal violet) at 48 hrs divided by OD of control ([4]; 10 μmol/ml): 0.3136
biofilm growth: OD 630 nm (crystal violet) at 48 hrs divided by OD of control ([4]; 20 μmol/ml): 0.1638
biofilm growth: OD 630 nm (crystal violet) at 48 hrs divided by OD of control ([4]; 25 μmol/ml): 0.2969
biofilm growth: OD 630 nm (crystal violet) at 48 hrs divided by OD of control ([5]; 5 μmol/ml): 0.2553
biofilm growth: OD 630 nm (crystal violet) at 48 hrs divided by OD of control ([5]; 10 μmol/ml): 0.2232
biofilm growth: OD 630 nm (crystal violet) at 48 hrs divided by OD of control ([5]; 20 μmol/ml): 0.0056
biofilm growth: OD 630 nm (crystal violet) at 48 hrs divided by OD of control ([5]; 25 μmol/ml): 0.0112
biofilm growth: OD 630 nm (crystal violet) at 48 hrs divided by OD of control ([6]; 5 μmol/ml): 0.0781
biofilm growth: OD 630 nm (crystal violet) at 48 hrs divided by OD of control ([6]; 10 μmol/ml): 0.5693
biofilm growth: OD 630 nm (crystal violet) at 48 hrs divided by OD of control ([6]; 20 μmol/ml): 1.2009
biofilm growth: OD 630 nm (crystal violet) at 48 hrs divided by OD of control ([6]; 25 μmol/ml): 0.4072
biofilm growth: OD 630 nm (crystal violet) at 48 hrs divided by OD of control ([7]; 5 μmol/ml): 0.7904
biofilm growth: OD 630 nm (crystal violet) at 48 hrs divided by OD of control ([7]; 10 μmol/ml): 0.1852
biofilm growth: OD 630 nm (crystal violet) at 48 hrs divided by OD of control ([7]; 20 μmol/ml): 0.2103
biofilm growth: OD 630 nm (crystal violet) at 48 hrs divided by OD of control ([7]; 25 μmol/ml): 0.2516
biofilm growth: OD 630 nm (crystal violet) at 48 hrs divided by OD of control ([8]; 5 μmol/ml): 0.1909
biofilm growth: OD 630 nm (crystal violet) at 48 hrs divided by OD of control ([8]; 10 μmol/ml): 0.1079
biofilm growth: OD 630 nm (crystal violet) at 48 hrs divided by OD of control ([8]; 20 μmol/ml): 0.1578
biofilm growth: OD 630 nm (crystal violet) at 48 hrs divided by OD of control ([8]; 25 μmol/ml): 0.2648
biofilm growth: OD 630 nm (crystal violet) at 48 hrs divided by OD of control ([9]; 5 μmol/ml): 1.8315
biofilm growth: OD 630 nm (crystal violet) at 48 hrs divided by OD of control ([9]; 10 μmol/ml): 1.7019
biofilm growth: OD 630 nm (crystal violet) at 48 hrs divided by OD of control ([9]; 20 μmol/ml): 0.6462
biofilm growth: OD 630 nm (crystal violet) at 48 hrs divided by OD of control ([9]; 25 μmol/ml): 0.2237
biofilm growth: OD 630 nm (crystal violet) at 48 hrs divided by OD of control ([10]; 5 μmol/ml): 0.7552
biofilm growth: OD 630 nm (crystal violet) at 48 hrs divided by OD of control ([10]; 10 μmol/ml): 0.9004
biofilm growth: OD 630 nm (crystal violet) at 48 hrs divided by OD of control ([10]; 20 μmol/ml): 0.1717
biofilm growth: OD 630 nm (crystal violet) at 48 hrs divided by OD of control ([10]; 25 μmol/ml): 0.3008
biofilm growth: OD 630 nm (crystal violet) at 48 hrs divided by OD of control ([11]; 5 μmol/ml): 0.7237
biofilm growth: OD 630 nm (crystal violet) at 48 hrs divided by OD of control ([11]; 10 μmol/ml): 0.0179
biofilm growth: OD 630 nm (crystal violet) at 48 hrs divided by OD of control ([11]; 20 μmol/ml): 0.0264
biofilm growth: OD 630 nm (crystal violet) at 48 hrs divided by OD of control ([11]; 25 μmol/ml): 0.1018
biofilm growth: OD 630 nm (crystal violet) at 48 hrs divided by OD of control ([12]; 5 μmol/ml): 0.9914
biofilm growth: OD 630 nm (crystal violet) at 48 hrs divided by OD of control ([12]; 10 μmol/ml): 0.4234
biofilm growth: OD 630 nm (crystal violet) at 48 hrs divided by OD of control ([12]; 20 μmol/ml): 0.0174
biofilm growth: OD 630 nm (crystal violet) at 48 hrs divided by OD of control ([12]; 25 μmol/ml): 0.0067
biofilm growth: OD 630 nm (crystal violet) at 48 hrs divided by OD of control ([13]; 5 μmol/ml): 1.3972
biofilm growth: OD 630 nm (crystal violet) at 48 hrs divided by OD of control ([13]; 10 μmol/ml): 1.2242
biofilm growth: OD 630 nm (crystal violet) at 48 hrs divided by OD of control ([13]; 20 μmol/ml): 0.0684
biofilm growth: OD 630 nm (crystal violet) at 48 hrs divided by OD of control ([13]; 25 μmol/ml): 0.0490
biofilm growth: OD 630 nm (crystal violet) at 48 hrs divided by OD of control ([14]; 5 μmol/ml): 1.2254
biofilm growth: OD 630 nm (crystal violet) at 48 hrs divided by OD of control ([14]; 10 μmol/ml): 1.0551
biofilm growth: OD 630 nm (crystal violet) at 48 hrs divided by OD of control ([14]; 20 μmol/ml): 0.5417
biofilm growth: OD 630 nm (crystal violet) at 48 hrs divided by OD of control ([14]; 25 μmol/ml): 0.4820
